Test results from patent US20140023611A1 (priority 2010, published 2014).

What follows are compounds tested against T1, rat NaP2b (SLC34A2) (Rattus norvegicus, UniProt Q9JJ09) (assay: Inhibition of NaP2b-mediated Pi (33P) uptake in transfected HEK293 cells, rat NaP2b). Conditions: 33P Pi uptake, 0.1 mM phosphate, value given as pIC50 range.
T1 construct: host or cells: HEK293
T1 sequence (Q9JJ09 1-695): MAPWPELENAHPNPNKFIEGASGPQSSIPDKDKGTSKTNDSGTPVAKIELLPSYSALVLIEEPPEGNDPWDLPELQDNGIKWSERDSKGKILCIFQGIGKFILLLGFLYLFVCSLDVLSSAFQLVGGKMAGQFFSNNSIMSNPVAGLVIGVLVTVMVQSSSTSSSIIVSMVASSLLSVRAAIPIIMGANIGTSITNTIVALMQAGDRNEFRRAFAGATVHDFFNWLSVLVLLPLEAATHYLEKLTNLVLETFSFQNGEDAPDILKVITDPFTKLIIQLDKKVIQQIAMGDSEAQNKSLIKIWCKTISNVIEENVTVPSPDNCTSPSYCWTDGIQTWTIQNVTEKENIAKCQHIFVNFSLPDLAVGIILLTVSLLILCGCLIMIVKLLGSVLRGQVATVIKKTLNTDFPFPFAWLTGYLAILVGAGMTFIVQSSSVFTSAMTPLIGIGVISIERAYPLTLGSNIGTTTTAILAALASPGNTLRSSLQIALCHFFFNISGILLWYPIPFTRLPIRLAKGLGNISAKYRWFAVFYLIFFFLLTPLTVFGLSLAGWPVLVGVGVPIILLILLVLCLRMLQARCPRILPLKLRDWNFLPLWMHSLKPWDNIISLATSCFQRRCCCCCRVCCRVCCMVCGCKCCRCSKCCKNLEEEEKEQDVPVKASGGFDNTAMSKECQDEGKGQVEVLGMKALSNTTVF
Type: cell-based
Procedure: HEK293 cells were obtained from the American Type Culture collection and propagated per their instructions. […] The sequence of the human protein was mutated to insert a threonine after residue 37, and to introduce a N39D mutation.
Cells were seeded into 96-well plates at 25,000 cells/well and cultured overnight. Lipofectamine 2000 (Invitrogen) was used to introduce the NaP2b cDNA, and the cells were allowed to approach confluence during a second overnight incubation. […] Each compound was tested at twelve concentrations ranging from 0.1 nM to 30 uM. Assays were run in duplicate.
Cells were lysed by addition of 20 μL 0.1% Tween 80 followed by 100 μL scintillation fluid, and counted using a TopCount (Perkin Elmer).
pIC50 (the negative log of the IC50) values of the test compounds were calculated using GraphPad Prism.
An IC50 of 10 to 31.6 µM was found for CC(=O)NC1CCN(C(=O)c2cccc(C(=O)Nc3ccc(N4CCCCC4)cc3-c3cc(C(=O)NCc4cccc(C(F)(F)F)c4)ccn3)c2)C1 (stereo in doubt) [Example 4.10, (S)-2-(2-(3-(3-Acetamidopyrrolidine-1-carbonyl)benzamido)-5-(piperidin-1-yl)phenyl)-N-(3-(trifluoromethyl)benzyl)isonicotinamide] in this work. An IC50 of 1 to 7.94 µM was found for COCCNC(=O)C1CCCN(Cc2cccc(C(=O)Nc3ccc(N4CCCCC4)cc3-c3cc(C(=O)NCc4cccc(C(F)(F)F)c4)ccn3)c2)C1 (stereo in doubt) [Example 12.1, (S)-2-(2-(3-((3-((2-Methoxyethyl)carbamoyl)piperidin-1-yl)methyl)benzamido)-5-(piperidin-1-yl)phenyl)-N-(3-(trifluoromethyl)benzyl)isonicotinamide] in this work. An IC50 of 10 to 31.6 µM was found for COCCNC(=O)C1CCCN(Cc2cccc(C(=O)Nc3ccc(N4CCCCC4)cc3-c3cc(C(=O)NCc4cccc(C(F)(F)F)c4)ccn3)c2)C1 (stereo in doubt) [Example 12.2, (R)-2-(2-(3-((3-((2-Methoxyethyl)carbamoyl)piperidin-1-yl)methyl)benzamido)-5-(piperidin-1-yl)phenyl)-N-(3-(trifluoromethyl)benzyl)isonicotinamide] in this work. An IC50 of 10 to 31.6 µM was found for O=C(O)CCSCc1cccc(C(=O)Nc2ccc(N3CCCCC3)cc2-c2cc(C(=O)NCc3ccc(C(F)(F)F)nc3)ccn2)c1 [Example 1.2, 3-((3-((4-(Piperidin-1-yl)-2-(4-(((6-(trifluoromethyl)pyridin-3-yl)methyl)carbamoyl)pyridin-2-yl)phenyl)carbamoyl)benzyl)thio)propanoic acid] in this work. An IC50 of 1 to 7.94 µM was found for CC(C)(C)c1ccc(CNC(=O)c2ccnc(-c3cc(N4CCCCC4)ccc3NC(=O)c3cccc(CSCCC(=O)O)c3)c2)cc1 [Example 1.3, 3-((3-((2-(4-((4-(Tert-butyl)benzyl)carbamoyl)pyridin-2-yl)-4-(piperidin-1-yl)phenyl)carbamoyl)benzyl)thio)propanoic acid] in this work. An IC50 of 1 to 7.94 µM was found for O=C(O)CCSCc1cccc(C(=O)Nc2ccc(N3CCCCC3)cc2-c2cc(C(=O)NCCc3cccc(C(F)(F)F)c3)ccn2)c1 [Example 1.5] in this work. An IC50 of 1 to 7.94 µM was found for CCCCCCCNC(=O)c1ccnc(-c2cc(N3CCCCC3)ccc2NC(=O)c2cccc(CSCCC(=O)O)c2)c1 [Example 1.6] in this work. An IC50 of 1 to 7.94 µM was found for O=C(O)CCSCc1cccc(C(=O)Nc2ccc(N3CCCCC3)cc2-c2cc(C(=O)NCC3CCCCC3)ccn2)c1 [Example 1.7] in this work. An IC50 of 10 to 31.6 µM was found for CC(C)CNC(=O)c1ccnc(-c2cc(N3CCCCC3)ccc2NC(=O)c2cccc(CSCCC(=O)O)c2)c1 [Example 1.8] in this work. An IC50 of 1 to 7.94 µM was found for CN(C)c1ccc(CNC(=O)c2ccnc(-c3cc(N4CCCCC4)ccc3NC(=O)c3cccc(CSCCC(=O)O)c3)c2)cc1 [Example 1.10] in this work. An IC50 of 10 to 31.6 µM was found for Nc1ccccc1CNC(=O)c1ccnc(-c2cc(N3CCCCC3)ccc2NC(=O)c2cccc(CSCCC(=O)O)c2)c1 [Example 1.11] in this work. An IC50 of 1 to 7.94 µM was found for O=C(O)CCSCc1cccc(C(=O)Nc2ccc(N3CCCCC3)cc2-c2cc(C(=O)NCc3cccc4ccccc34)ccn2)c1 [Example 1.12] in this work. An IC50 of 1 to 7.94 µM was found for O=C(O)CCSCc1cccc(C(=O)Nc2ccc(N3CCCCC3)cc2-c2cc(C(=O)NC3CCCc4ccccc43)ccn2)c1 (stereo not drawn) [Example 1.13] in this work. An IC50 of 1 to 7.94 µM was found for O=C(O)CCSCc1cccc(C(=O)Nc2ccc(N3CCCCC3)cc2-c2cc(C(=O)NCc3ccc(N4CCCCC4)cc3)ccn2)c1 [Example 1.14] in this work. An IC50 of 1 to 7.94 µM was found for O=C(O)CCSCc1cccc(C(=O)Nc2ccc(N3CCCCC3)cc2-c2cc(C(=O)NCc3cccc(N4CCCCC4)c3)ccn2)c1 [Example 1.15] in this work. An IC50 of 10 to 31.6 µM was found for O=C(O)CCSCc1cccc(C(=O)Nc2ccc(N3CCCCC3)cc2-c2cc(C(=O)NCc3cccc(CN4CCOCC4)c3)ccn2)c1 [Example 1.16] in this work. An IC50 of 1 to 7.94 µM was found for Cc1ccc(Cl)cc1CNC(=O)c1ccnc(-c2cc(N3CCCCC3)ccc2NC(=O)c2cccc(CSCCC(=O)O)c2)c1 [Example 1.17] in this work. An IC50 of 1 to 7.94 µM was found for Cc1ccc(CNC(=O)c2ccnc(-c3cc(N4CCCCC4)ccc3NC(=O)c3cccc(CSCCC(=O)O)c3)c2)o1 [Example 1.18] in this work. An IC50 of 10 to 31.6 µM was found for O=C(O)CCSCc1cccc(C(=O)Nc2ccc(N3CCCCC3)cc2-c2cc(C(=O)Nc3nc4ccccc4[nH]3)ccn2)c1 [Example 1.19] in this work. An IC50 of 10 to 31.6 µM was found for O=C(O)CCSCc1cccc(C(=O)Nc2ccc(N3CCCCC3)cc2-c2cc(C(=O)Nc3ccc4ncsc4c3)ccn2)c1 [Example 1.20] in this work. An IC50 of 10 to 31.6 µM was found for O=C(O)CCSCc1cccc(C(=O)Nc2ccc(N3CCCCC3)cc2-c2cc(C(=O)NCc3cccc(-n4cccn4)c3)ccn2)c1 [Example 1.21] in this work. An IC50 of 1 to 7.94 µM was found for O=C(O)CCSCc1cccc(C(=O)Nc2ccc(N3CCCCC3)cc2-c2cc(C(=O)NCc3ccc4c(c3)OCCCO4)ccn2)c1 [Example 1.22] in this work. An IC50 of 1 to 7.94 µM was found for O=C(O)CCSCc1cccc(C(=O)Nc2ccc(N3CCCCC3)cc2-c2cc(C(=O)NCc3ccc4c(c3)OCO4)ccn2)c1 [Example 1.23] in this work. An IC50 of 1 to 7.94 µM was found for O=C(O)CCSCc1cccc(C(=O)Nc2ccc(N3CCCCC3)cc2-c2cc(C(=O)NCc3ccc4c(c3)CCO4)ccn2)c1 [Example 1.24] in this work. An IC50 of 1 to 7.94 µM was found for O=C(O)CCSCc1cccc(C(=O)Nc2ccc(N3CCCCC3)cc2-c2cc(C(=O)NCc3ccc(F)c(OC(F)(F)F)c3)ccn2)c1 [Example 1.25] in this work. An IC50 of 1 to 7.94 µM was found for O=C(O)CCSCc1cccc(C(=O)Nc2ccc(N3CCCCC3)cc2-c2cc(C(=O)NCc3ccc(OC(F)(F)F)c(F)c3)ccn2)c1 [Example 1.26] in this work. An IC50 of 10 to 31.6 µM was found for COc1ccc(CNC(=O)c2ccnc(-c3cc(N4CCCCC4)ccc3NC(=O)c3cccc(CSCCC(=O)O)c3)c2)cc1C(F)(F)F [Example 1.27] in this work. An IC50 of 1 to 7.94 µM was found for O=C(O)CCSCc1cccc(C(=O)Nc2ccc(N3CCCCC3)cc2-c2cc(C(=O)NCc3ccc(F)c(C(F)(F)F)c3)ccn2)c1 [Example 1.28] in this work. An IC50 of 1 to 7.94 µM was found for O=C(O)CCSCc1cccc(C(=O)Nc2ccc(N3CCCCC3)cc2-c2cc(C(=O)NCc3cc(F)cc(C(F)(F)F)c3)ccn2)c1 [Example 1.29] in this work. An IC50 of 1 to 7.94 µM was found for O=C(O)CCSCc1cccc(C(=O)Nc2ccc(N3CCCCC3)cc2-c2cc(C(=O)NCc3cc(C(F)(F)F)ccc3F)ccn2)c1 [Example 1.30] in this work. An IC50 of 1 to 7.94 µM was found for O=C(O)CCSCc1cccc(C(=O)Nc2ccc(N3CCCCC3)cc2-c2cc(C(=O)NCc3cccc(C(F)(F)F)c3F)ccn2)c1 [Example 1.31] in this work. An IC50 of 1 to 7.94 µM was found for O=C(O)CCSCc1cccc(C(=O)Nc2ccc(N3CCCCC3)cc2-c2cc(C(=O)NCc3ccc(Cl)c(C(F)(F)F)c3)ccn2)c1 [Example 1.33] in this work. An IC50 of 1 to 7.94 µM was found for O=C(O)CCSCc1cccc(C(=O)Nc2ccc(N3CCCCC3)cc2-c2cc(C(=O)NC3CCc4ccccc43)ccn2)c1 (stereo not drawn) [Example 1.34] in this work. An IC50 of 1 to 7.94 µM was found for O=C(O)CCSCc1cccc(C(=O)Nc2ccc(N3CCCCC3)cc2-c2cc(C(=O)NC3Cc4ccccc4C3)ccn2)c1 [Example 1.35] in this work. An IC50 of 1 to 7.94 µM was found for O=C(O)CCSCc1cccc(C(=O)Nc2ccc(N3CCCCC3)cc2-c2cc(C(=O)NC(c3ccccc3)c3ccccc3)ccn2)c1 [Example 1.36] in this work. An IC50 of 1 to 7.94 µM was found for CN(Cc1cccc(C(F)(F)F)c1)C(=O)c1ccnc(-c2cc(N3CCCCC3)ccc2NC(=O)c2cccc(CSCCC(=O)O)c2)c1 [Example 1.37] in this work. An IC50 of 10 to 31.6 µM was found for Cc1cccc(CN(C)C(=O)c2ccnc(-c3cc(N4CCCCC4)ccc3NC(=O)c3cccc(CSCCC(=O)O)c3)c2)c1 [Example 1.38] in this work. An IC50 of 1 to 7.94 µM was found for O=C(O)CCSCc1cccc(C(=O)Nc2ccc(N3CCCCC3)cc2-c2cc(C(=O)NCc3ccc(OCc4ccccc4)cc3)ccn2)c1 [Example 1.39] in this work. An IC50 of 1 to 7.94 µM was found for O=C(O)CCSCc1cccc(C(=O)Nc2ccc(N3CCCCC3)cc2-c2cc(C(=O)NCc3ccc(Oc4ccccc4)cc3)ccn2)c1 [Example 1.40] in this work. An IC50 of 1 to 7.94 µM was found for O=C(O)CCSCc1cccc(C(=O)Nc2ccc(N3CCCCC3)cc2-c2cc(C(=O)NCc3cccc(-c4ccccc4)c3)ccn2)c1 [Example 1.42] in this work. An IC50 of 1 to 7.94 µM was found for O=C(O)CCSCc1cccc(C(=O)Nc2ccc(N3CCCCC3)cc2-c2cc(C(=O)NCc3ccccc3OC(F)(F)F)ccn2)c1 [Example 1.43] in this work. An IC50 of 1 to 7.94 µM was found for O=C(O)CCSCc1cccc(C(=O)Nc2ccc(N3CCCCC3)cc2-c2cc(C(=O)NCc3ccc(OC(F)(F)F)cc3)ccn2)c1 [Example 1.44] in this work. An IC50 of 1 to 7.94 µM was found for O=C(O)CCSCc1cccc(C(=O)Nc2ccc(N3CCCCC3)cc2-c2cc(C(=O)NCc3cccc(OC(F)(F)F)c3)ccn2)c1 [Example 1.45] in this work. An IC50 of 1 to 7.94 µM was found for Cc1cccc(CNC(=O)c2ccnc(-c3cc(N4CCCCC4)ccc3NC(=O)c3cccc(CSCCC(=O)O)c3)c2)c1 [Example 1.46] in this work. An IC50 of 1 to 7.94 µM was found for O=C(O)CCSCc1cccc(C(=O)Nc2ccc(N3CCCCC3)cc2-c2cc(C(=O)NCc3ccc(C(F)(F)F)cc3)ccn2)c1 [Example 1.47] in this work.
